Measured values as given in patent US20190315966A1, “COMPOUNDS FOR THE DETECTION OF SENESCENT CELLS” (THE UNIVERSITY OF MANCHESTER, priority 2016, published 2019).

What was measured:
[1] = system: senescent cells in human thymus; test: Histochemical staining of human thymus tissue sections (cortex and medulla); conditions: cortex and medulla of the human thymus
Procedure: (§1) Tissue sections were obtained from paraffin embedded, formalin fixed, human thymus and specifically from the cortex and medulla of this organ. Subsequently, they were immobilized on glass microscopy slides by standard procedures and processed as follows: • a. Deparaffinization for 5 min at room temperature in xylene. • b. Gradual rehydration in solutions of descending concentration of ethanol (100%, 80%, 70%, 50% v/v) and finally in TBS (Tris-buffered saline) or PBS (Phosphate-buffered saline) solution. • c. The LG9 SBB-analogue was diluted in 70% ethanol (v/v), filtered and then applied on tissue sections for 10 min. • d. Quick wash in 50% (v/v) ethanol. • e. Transfer and wash in TBS or PBS solution. • f. Counterstain with Hematoxylin or Nuclear Fast Red, followed by mounting with glycerol and sealed with a cover slip. • g. Microscopy observation.

[2] = system: lipofuscin rich cells in human seminal vesicle and human liver with steatohepatitis; test: Control staining of reference tissues with high lipofuscin content (seminal vesicle, liver with steatohepatitis); conditions: human seminal vesicle and liver with steatohepatitis sections
Procedure: as §1, with “fixed: (a)” for “fixed,”, “seminal vesicle” for “thymus”, “(b) human liver with steatohepatitis that have high content of lipofusin making them ideal reference (control) tissues to test” for “specifically from”, “SBB assay.” for “cortex and medulla of this organ.”, “SSB dye” for “LG9 SBB-analogue”
Tissue sections were obtained from paraffin embedded, formalin fixed: (a) human seminal vesicle and (b) human liver with steatohepatitis that have high content of lipofusin making them ideal reference (control) tissues to test the performance of the LG9 compound. Subsequently, they were immobilized on glass microscopy slides by standard procedures and processed as follows: • a. Deparaffinization for 5 min at room temperature in xylene. • b. […]

[3] = system: senescent cells in mouse lung adenomas; test: Histochemical staining of paraffin embedded, formalin fixed tissue sections, mouse lung adenomas; conditions: mouse lung adenoma sections; stain in 70% ethanol, 10 min; microscopy
Procedure: as §1, with “fixed: (a) irradiated” for “fixed,”, “laryngeal tumors” for “thymus”, “(b) mouse lung adenomas, with established presence” for “specifically from the cortex and medulla”, “senescent cells [as described in Georgakopoulou et al, Aging (Albany N.Y.) 2013].” for “this organ.”, “SSB dye” for “LG9 SBB-analogue”
(§2) Tissue sections were obtained from paraffin embedded, formalin fixed: (a) irradiated human laryngeal tumors and (b) mouse lung adenomas. Subsequently, they were immobilized on glass microscopy slides by standard procedures and processed as follows: • a. Deparaffinization for 5 min at room temperature in xylene. • b. […]

[4] = Ethanol solubility of the stain in the histochemical method; format: physicochemical; conditions: stain diluted in ethanol / 70% ethanol (v/v) and filtered
[5] = system: senescent cells in irradiated human laryngeal tumors; test: Histochemical staining of paraffin embedded, formalin fixed tissue sections, irradiated human laryngeal tumors; conditions: irradiated human laryngeal tumor sections; stain in 70% ethanol, 10 min; microscopy
Procedure: as §1, with “fixed: (a) irradiated” for “fixed,”, “laryngeal tumors” for “thymus”, “(b) mouse lung adenomas, with established presence” for “specifically from the cortex and medulla”, “senescent cells [as described in Georgakopoulou et al, Aging (Albany N.Y.) 2013].” for “this organ.”, “SSB dye” for “LG9 SBB-analogue”
as §2

[6] = system: Saos2-p53 Tet-On cells; test: Histochemical staining of cell spreads on cover slips; format: cell-based; conditions: Saos2-p53 Tet-On cells after p53 induction; stain in ethanol, 10 min
Procedure: (§3) Saos2-p53 Tet-On cells were grown on cover slips and collected after p53 induction to induce senescence. Cover slips were treated as follows: • a. Fixation in ice-cold ethanol or methanol for 4 min. • b. Application of SSB Dye, diluted in ethanol and filtered, on cells for 10 min. • c. Quick wash in 50% (v/v) ethanol. • d. Transfer and wash in TBS or PBS solution. • e. Counterstain with Nuclear Fast Red, followed by mounting with glycerol and sealing with a cover slip. • f. Microscopy observation.
as §3, with “collected […]” for “collected”, “the LG9 SBB-analogue,” for “SSB Dye,”

[7] = per Georgakopoulou et al, Aging 2013; cited from earlier work
[8] = system: senescent cells in liver biopsies; test: Histochemical staining of liver tissue sections with high content of lipofuscin
Procedure: as §1, with “fixed liver biopsies that have high content” for “fixed, human thymus and specifically from the cortex and medulla”, “lipofusin.” for “this organ.”, “LG46 or LG48 analogue” for “LG9 SBB-analogue”

Row | SMILES | staining of lipofuscin rich cells [2] | staining of senescent cells [3] | ethanol solubility in the staining method [4] | staining of senescent cells [5] | staining of cells [8] | other results
1 | CC1(CCCO)Nc2cccc3c(/N=N/c4ccc(/N=N/c5ccccc5)c5ccccc45)ccc(c23)N1 (stereo not drawn) [Example 5, 3-(2-Methyl-6-((E)-(4-((E)-phenyldiazenyl)naphthalen-1-yl)diazenyl)-2,3-dihydro-1H-perimidin-2-yl)propan-1-ol] |  |  |  |  |  | melting point: 124 to 126 °C
2 | CC1(CO)Nc2cccc3c(/N=N/c4ccc(/N=N/c5ccccc5)c5ccccc45)ccc(c23)N1 (stereo not drawn) [LG9, (2-methyl-6-((E)-(4-((E)-phenyldiazenyl)naphthalen-1-yl)diazenyl)-2,3-dihydro-1H-perimidin-2-yl)methanol] | stained cells | stained senescent cells | does not encounter the ethanol solubility problems | stained senescent cells |  | staining of senescent cells [1]: stained senescent cells
3 | CC1(C)Nc2cccc3c(/N=N/c4ccc(/N=N/c5ccccc5)c5ccccc45)ccc(c23)N1 [SBB, Sudan Black B, reference compound] | stained cells | clearly stained |  | clearly stained |  | staining of senescent cells [6]: clearly stained; ethanol solubility of the SBB stain [7]: ethanol solubility problems
4 | CC1(C)Nc2cccc3c(/N=N/c4ccc(/N=N/c5ccc(CCO)cc5)c5ccccc45)ccc(c23)N1 [LG48, 2-(4-((E)-(4-((E)-(2,2-dimethyl-2,3-dihydro-1H-perimidin-6-yl)diazenyl)naphthalen-1-yl)diazenyl)phenyl)ethanol] |  |  | does not encounter the ethanol solubility problems |  | stained cells | 
5 | CC1(C)Nc2cccc3c(/N=N/c4ccc(/N=N/c5cccc(O)c5)c5ccccc45)ccc(c23)N1 [LG46, 3-((E)-(4-((E)-(2,2-dimethyl-2,3-dihydro-1H-perimidin-6-yl)diazenyl)naphthalen-1-yl)diazenyl)phenol] |  |  | does not encounter the ethanol solubility problems |  | stained cells | 
